Assays:
[1] = tested on: utrophin protein levels in human DMD myotubes; assay: Utrophin Expression Assay in Human Myotubes; type: cell-based; conditions: 50 nM test compound
Protocol: Utrophin induction was determined by a method which was similar to a method of 1. Courdier-Fruh et al., Neuromuscular Disord., 2002, 12, S95-S104. Primary human muscle cell cultures were prepared from muscle biopsies taken during orthopedic surgery from Duchenne patients (provided by the Association Francaise contre les Myopathies). Cultures were prepared and maintained according to standard protocols. Induction of utrophin expression in human DMD myotubes was assayed at 50 nM or 500 nM of test compound added in differentiation medium. Normalized utrophin protein levels are determined after 56 d of incubation by cell-based ELISA with a mouse monoclonal antibody to the aminoterminal portion of utrophin (NCL-DRP2, Novocastra Laboratories). For calibration, the cell density and differentiation was determined by absorbance measurements of the total dehydrogenase enzyme activity in each well using the calorimetric CellTiter 96®AQ One Solution Reagent Proliferation Assay (Promega) according to the manufacturer's recommendation. Subsequently, cells were fixed, washed, permeabilized with 0.5% (v/v) Triton X-100 and unspecific antibody binding-sites blocked by standard procedures. Utrophin protein levels were determined immunologically with utrophin-specific primary antibody and with an appropriate peroxidase-coupled secondary antibody (Jackson ImmunoResearch Laboratories) using QuantaBlu™ Fluorogenic Peroxidase Substrate Kit (Pierce) for detection. Fluorescence measurements were carried out with a multilabel counter (Wallac) at λex=355 nm and at λem=460 nm. The primary readout of this signal is presented in arbitrary units. For calibration, the arbitrary units representing the relative utrophin protein content of each well was divided by the corresponding cell-titer absorbance value to correct for cell density. For comparison between experiments, the cell-titer corrected readout for utrophin protein content in each well was expressed in percent of solvent treated control cultures (set to 100%), i.e. data are % utrophin protein levels compared to DMSO solvent (N=4).

[2] = biological target: T1, 20S Proteasome (Oryctolagus cuniculus, UniProt G1T4Q9); assay: 20S Proteasome Assay; type: biochemical; conditions: Rabbit, read-out: 20S Prot IC50
T1 sequence (G1T4Q9 1-263): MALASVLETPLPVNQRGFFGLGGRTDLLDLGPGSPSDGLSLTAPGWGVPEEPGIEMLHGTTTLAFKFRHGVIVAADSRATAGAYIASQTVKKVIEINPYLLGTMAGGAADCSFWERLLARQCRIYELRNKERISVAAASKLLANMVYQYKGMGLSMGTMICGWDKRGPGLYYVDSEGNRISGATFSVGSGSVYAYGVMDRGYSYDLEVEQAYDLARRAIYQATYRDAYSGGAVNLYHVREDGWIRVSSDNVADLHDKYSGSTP
Protocol: 25 μl of a reaction buffer containing 400 μM of the fluorogenic substrate Suc-Leu-Leu-Val-Tyr-AMC (Bachem) are dispensed per well of a white microtiter plate. Test compounds dissolved in 0.5 μl DMSO are added. To start the reaction; 25 μl of reaction buffer containing 35 ng of enzyme (20S Proteasome, Rabbit, Calbiochem) are added. The increase in fluorescence (excitation at 360 nm; emission at 440 nm) is measured over 30 min at 30° C. at 30″. The IC50's are then determined from the slopes.

[3] = tested on: mdx mouse; assay: Longterm treatment of mdx mice (muscle histology); type: in vivo; conditions: for adverse effects upon longterm treatment: longterm treatment every 2nd day i.p.
Protocol: The mdx mouse is a well established animal model for Duchenne Muscular Dystrophy (Bulfield G., Siller W. G., Wight P. A., Moore K. J., X chromosome-linked muscular dystrophy (mdx) in the mouse, Proc. Natl. Acad. Sci. USA., 1984, 81(4), 1189-1192). Selected compounds were tested in longterm treatments of mdx mice, according to the procedures described below.
Mouse strains: C57BL/10scsn and C57BL/10scsn mdx mouse strains were purchased at The Jackson Laboratory (ME, USA) and bred inhouse. Mouse males were sacrificed at the age of 3 or 7 weeks by CO2 asphyxiation.
Treatment: Compounds were dissolved in 50% PEG, 50% saline solution and applied by i.p. injection.
Histology: Tibialis anterior (TA), quadriceps (Quad), and diaphragm (Dia) muscles were collected and mounted on cork supports using gum tragacanth (Sigma-Aldrich, Germany). The samples were snap-frozen in melting isopentane and stored at −80° C. 12 μm thick cryosections of the mid-belly region of muscles were prepared. For staining, sections were air dried and fixed with 4% PFA in PBS for 5 minutes, washed 3 times with PBS and incubated over night at 4° C. in PBS containing 2 μg/ml Alexa Fluor ™ 488 conjugated wheat-germ agglutinin (WGA-Alexa, Molecular Probes, Eugene, Oreg., USA) to stain membrane-bound and extracellular epitopes and 1 μg/ml 4′,6-diamidino-2-phenylindole (DAPI; Molecular Probes) to stain nuclei.
Image acquisition and analysis: Fluorescence microscopy images of both labels were acquired using a digital camera (ColorView II, Soft Imaging System, Münster, Germany) coupled to a fluorescence microscope (Vanox S, Olympus, Tokyo, Japan). Combination of these two stainings to a composite image, assembling of several images to a complete image of the entire muscle cross-section and further semi-automated analysis was performed using the image analysis program AnalySIS (Soft Imaging System). Image analysis of 1200-2900 muscle fibers in each section was performed in three steps: 1) determination of the muscle fiber boundaries, 2) determination of the muscle fiber size, and 3) determination of the percentage of muscle fibers containing centralized nuclei. Six different geometrical parameters were tested for the determination of the muscle fiber size: (a) the “minimal feret” (the minimum distance of parallel tangents at opposing borders of the muscle fiber), (b) the “area”, (c) the “minimal inner diameter” (the minimum diameter through the center of the muscle fiber), (d) the “minimal diameter” (the minimum diameter of a muscle fiber for angles in the range 0° through 179° with step width 1°, (e) the “minimal outer diameter” (the minimum diameter through the muscle fiber from outer border to outer border), and (f) the “perimeter”. The variance coefficient of the muscle fiber size is defined as follows: variance coefficient=(standard deviation of the muscle fiber size/mean of the muscle fiber size of the section)*[…]. For statistical analysis of different variance coefficient values Mann-Whitney U test was used.

[4] = 20 mg/kg every 2nd day i.p., 3 week old mice, 4 weeks treatment, diaphragm, vs vehicle mdx controls

Structure (SMILES)	melting point [°C]	UTR Induction @50 nM [1] [%]	IC50 [2] [nM]	decrease in the variance coefficient of the muscle fiber size in the Dia ([3]; 2 mg/kg every 2nd day i.p., diaphragm, vs vehicle mdx controls) [%]	decrease in the variance coefficient of the muscle fiber size in the Dia [3, 4] [%]	reduction of the percentage of centralized nuclei in the Dia ([3]; 20 mg/kg every 2nd day i.p., diaphragm, vs vehicle mdx controls) [%]	decrease in the variance coefficient of the muscle fiber size in the Quad ([3]; 20 mg/kg every 2nd day i.p., quadriceps, vs vehicle mdx controls) [%]	adverse effects upon longterm treatment [3]
CCNC(=O)C(=O)C(Cc1ccc(OC)cc1)NC(=O)C(CC(C)C)NC(=O)C(Cc1cccc2ccccc12)NC(=O)CCCCC1CCSS1 (centres unmarked) [Example 637]	188 to 190	121	40	33	34	34	32	No prominent adverse effects
CCNC(=O)C(=O)[C@H](Cc1ccc(Cl)cc1)NC(=O)[C@@H](NC(=O)[C@H](Cc1ccccc1)NC(=O)CCCCC1CCS[S+]1[O-])C(C)C (some centres unmarked) [Example 2]	–	–	160	–	26	–	–	No prominent adverse effects

From US20070293486A1, “Alpha-Keto Carbonyl Calpain Inhibitors” (SANTHERA PHARMACEUTICALS (SCHWEIZ) AG, priority 2004, published 2007)
